The target in this assay is T1, CDK12/CyclinK (Homo sapiens, UniProt Q9NYV4).
T1 construct: His-CDK12 (aa Q696-S1082); made in house; host or cells: Hi-5 insect cells (baculovirus co-infection with CycK and yeast CAK1)
T1 sequence (Q9NYV4 with tags, fused parts or gaps): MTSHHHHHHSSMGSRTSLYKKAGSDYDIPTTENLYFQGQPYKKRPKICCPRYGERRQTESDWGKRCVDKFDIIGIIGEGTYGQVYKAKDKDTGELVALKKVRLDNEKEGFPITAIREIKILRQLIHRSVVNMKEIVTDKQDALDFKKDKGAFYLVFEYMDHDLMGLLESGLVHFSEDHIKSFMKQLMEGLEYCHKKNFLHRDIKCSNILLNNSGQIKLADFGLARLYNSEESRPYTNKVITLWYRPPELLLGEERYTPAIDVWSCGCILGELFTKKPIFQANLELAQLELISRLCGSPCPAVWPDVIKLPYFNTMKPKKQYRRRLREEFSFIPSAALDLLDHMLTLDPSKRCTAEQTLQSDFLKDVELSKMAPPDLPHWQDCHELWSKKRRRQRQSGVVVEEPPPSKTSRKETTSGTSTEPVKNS
T1 sequence (O75909 with tags, fused parts or gaps partner limits assumed): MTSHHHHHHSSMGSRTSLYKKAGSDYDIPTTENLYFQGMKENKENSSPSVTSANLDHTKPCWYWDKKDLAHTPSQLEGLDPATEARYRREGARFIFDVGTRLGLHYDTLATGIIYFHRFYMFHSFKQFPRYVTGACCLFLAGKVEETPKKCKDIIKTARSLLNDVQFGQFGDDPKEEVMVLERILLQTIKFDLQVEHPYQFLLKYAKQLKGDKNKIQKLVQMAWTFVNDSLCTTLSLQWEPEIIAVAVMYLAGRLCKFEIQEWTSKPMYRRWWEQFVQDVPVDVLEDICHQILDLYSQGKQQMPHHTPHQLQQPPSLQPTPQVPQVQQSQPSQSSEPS
In words: CDK12/CycK high ATP kinase assay (TR-FRET). The format is biochemical. Conditions: 2 mM ATP (high ATP); median; read-out: CDK12/CyclinK, 2 mM ATP (high ATP), IC50 - [mol/l] (median). The method, boiled down: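 Human His-tagged CDK12/CycK (about 0.75 nM) preincubated with compound 15 min, then reacted 60 min at 22 °C with 2 mM ATP and 1 µM biotinylated peptide in HEPES pH 7.5 buffer. Phospho-Ser62 c-Myc epitope detected by TR-FRET (665/620 nm ratio); data normalised to no-inhibitor and no-enzyme controls.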
A general note: TR-FRET usually uses a lanthanide donor and a delayed reading to cut background.
In the case of `FC1(F)CCC(n2nc(NCc3nc4ccccc4[nH]3)c3ncc(C4CC4)nc32)CC1` [Example 36, N-[(1H-benzimidazol-2-yl)methyl]-6-cyclopropyl-1-(4,4-difluorocyclohexyl)-1H-pyrazolo[3,4-b]pyrazin-3-amine], the IC50 was greater than 20 µM.

With `c1ccc2[nH]c(CNc3nn(C4CCCC4)c4nc(C5CC5)cnc34)nc2c1` [Example 39, N-[(1H-benzimidazol-2-yl)methyl]-1-cyclopentyl-6-cyclopropyl-1H-pyrazolo[3,4-b]pyrazin-3-amine], the IC50 is greater than 20 µM.

Turning to `O[C@H]1C[C@@H](n2nc(NCc3nc4ccccc4[nH]3)c3ncc(C4CC4)nc32)C1` [Example 40, cis-3-(3-{[(1H-benzimidazol-2-yl)methyl]amino}-6-cyclopropyl-1H-pyrazolo[3,4-b]pyrazin-1-yl)cyclobutan-1-ol], the IC50 is greater than 20 µM.

As to `OC[C@H]1C[C@H](n2nc(NCc3nc4ccccc4[nH]3)c3ncc(C4CC4)nc32)C1` [Example 46, [trans-3-(3-{[(1H-benzimidazol-2-yl)methyl]amino}-6-cyclopropyl-1H-pyrazolo[3,4-b]pyrazin-1-yl)cyclobutyl]methanol], the IC50 was greater than 20 µM.

In the case of `OC[C@H]1C[C@@H](n2nc(NCc3nc4ccccc4[nH]3)c3ncc(C4CC4)nc32)C1` [Example 47, [cis-3-(3-{[(1H-benzimidazol-2-yl)methyl]amino}-6-cyclopropyl-1H-pyrazolo[3,4-b]pyrazin-1-yl)cyclobutyl]methanol], the IC50 was found to be 12.8 µM.

As to `c1ccc2[nH]c(CNc3nn(C4CCC4)c4nc(C5CC5)cnc34)nc2c1` [Example 49, N-[(1H-benzimidazol-2-yl)methyl]-1-cyclobutyl-6-cyclopropyl-1H-pyrazolo[3,4-b]pyrazin-3-amine], the IC50 was greater than 20 µM.

In the case of `O[C@H]1CC[C@H](n2nc(NCc3nc4ccccc4[nH]3)c3ncc(C4CC4)nc32)CC1` [Example 50, trans-4-(3-{[(1H-benzimidazol-2-yl)methyl]amino}-6-cyclopropyl-1H-pyrazolo[3,4-b]pyrazin-1-yl)cyclohexan-1-ol], the IC50 amounted to 6.17 µM.

For the molecule `O[C@H]1CC[C@@H](n2nc(NCc3nc4ccccc4[nH]3)c3ncc(C4CC4)nc32)CC1` [Example 51, cis-4-(3-{[(1H-benzimidazol-2-yl)methyl]amino}-6-cyclopropyl-1H-pyrazolo[3,4-b]pyrazin-1-yl)cyclohexan-1-ol], the IC50 is greater than 20 µM.

With `CC1(C)CC(n2nc(NCc3nc4ccccc4[nH]3)c3ncc(C4CC4)nc32)CC(C)(C)O1` [Example 52, N-[(1H-benzimidazol-2-yl)methyl]-6-cyclopropyl-1-(2,2,6,6-tetramethyloxan-4-yl)-1H-pyrazolo[3,4-b]pyrazin-3-amine], the IC50 was greater than 20 µM.

Turning to `Fc1ccc2[nH]c(CNc3nn(C4CCOCC4)c4nc(C5CC5)cnc34)nc2c1` [Example 53, 6-cyclopropyl-N-[(5-fluoro-1H-benzimidazol-2-yl)methyl]-1-(oxan-4-yl)-1H-pyrazolo[3,4-b]pyrazin-3-amine], the IC50 was greater than 10 µM.

With `c1ccc2[nH]c(CNc3nn(C4CC5(COC5)C4)c4nc(C5CC5)cnc34)nc2c1` [Example 54, N-[(1H-benzimidazol-2-yl)methyl]-6-cyclopropyl-1-(2-oxaspiro[3.3]heptan-6-yl)-1H-pyrazolo[3,4-b]pyrazin-3-amine], the IC50 was 11.1 µM.

Regarding `c1ccc2[nH]c(CNc3nn(C4COC4)c4nc(C5CC5)cnc34)nc2c1` [Example 55, N-[(1H-benzimidazol-2-yl)methyl]-6-cyclopropyl-1-(oxetan-3-yl)-1H-pyrazolo[3,4-b]pyrazin-3-amine], the IC50 is greater than 20 µM.

On to `O[C@H]1CC[C@H](n2nc(NCc3nc4cc(F)ccc4[nH]3)c3ncc(C4CC4)nc32)CC1` [Example 56, trans-4-(6-cyclopropyl-3-{[(5-fluoro-1H-benzimidazol-2-yl)methyl]amino}-1H-pyrazolo[3,4-b]pyrazin-1-yl)cyclohexan-1-ol], for which the IC50 was greater than 18.1 µM.

With `OCCCn1nc(NCc2nc3ccccc3[nH]2)c2ncc(C3CC3)nc21` [Example 60, 3-(3-{[(1H-benzimidazol-2-yl)methyl]amino}-6-cyclopropyl-1H-pyrazolo[3,4-b]pyrazin-1-yl)propan-1-ol], the IC50 was greater than 20 µM.

On to `COCCCn1nc(NCc2nc3ccccc3[nH]2)c2ncc(C3CC3)nc21` [Example 61, N-[(1H-benzimidazol-2-yl)methyl]-6-cyclopropyl-1-(3-methoxypropyl)-1H-pyrazolo[3,4-b]pyrazin-3-amine], for which the IC50 is greater than 20 µM.

As for `COCCn1nc(NCc2nc3ccccc3[nH]2)c2ncc(C3CC3)nc21` [Example 65, N-[(1H-benzimidazol-2-yl)methyl]-6-cyclopropyl-1-(2-methoxyethyl)-1H-pyrazolo[3,4-b]pyrazin-3-amine], the IC50 was greater than 20 µM.

For `OCCn1nc(NCc2nc3ccccc3[nH]2)c2ncc(C3CC3)nc21` [Example 66, 2-(3-{[(1H-benzimidazol-2-yl)methyl]amino}-6-cyclopropyl-1H-pyrazolo[3,4-b]pyrazin-1-yl)ethan-1-ol], the IC50 is greater than 20 µM.

Consider `COC(C)(C)CCn1nc(NCc2nc3ccccc3[nH]2)c2ncc(C3CC3)nc21` [Example 67, N-[(1H-benzimidazol-2-yl)methyl]-6-cyclopropyl-1-(3-methoxy-3-methylbutyl)-1H-pyrazolo[3,4-b]pyrazin-3-amine], for which the IC50 is greater than 20 µM.

`CN(C)CCn1nc(NCc2nc3ccccc3[nH]2)c2ncc(C3CC3)nc21` [Example 68, N-[(1H-benzimidazol-2-yl)methyl]-6-cyclopropyl-1-[2-(dimethylamino)ethyl]-1H-pyrazolo[3,4-b]pyrazin-3-amine]: the IC50 is greater than 20 µM.

With `CC(C)(O)Cn1nc(NCc2nc3ccccc3[nH]2)c2ncc(C3CC3)nc21` [Example 69, 1-(3-{[(1H-benzimidazol-2-yl)methyl]amino}-6-cyclopropyl-1H-pyrazolo[3,4-b]pyrazin-1-yl)-2-methylpropan-2-ol], the IC50 is greater than 10 µM.

Consider `O[C@H]1C[C@H](Cn2nc(NCc3nc4ccccc4[nH]3)c3ncc(C4CC4)nc32)C1` [Example 70, trans-3-[(3-{[(1H-benzimidazol-2-yl)methyl]amino}-6-cyclopropyl-1H-pyrazolo[3,4-b]pyrazin-1-yl)methyl]cyclobutan-1-ol], for which the IC50 was greater than 20 µM.

Regarding `O[C@H]1C[C@@H](Cn2nc(NCc3nc4ccccc4[nH]3)c3ncc(C4CC4)nc32)C1` [Example 71, cis-3-[(3-{[(1H-benzimidazol-2-yl)methyl]amino}-6-cyclopropyl-1H-pyrazolo[3,4-b]pyrazin-1-yl)methyl]cyclobutan-1-ol], the IC50 is greater than 20 µM.

`OC1(Cn2nc(NCc3nc4ccccc4[nH]3)c3ncc(C4CC4)nc32)CCC1` [Example 72, 1-[(3-{[(1H-benzimidazol-2-yl)methyl]amino}-6-cyclopropyl-1H-pyrazolo[3,4-b]pyrazin-1-yl)methyl]cyclobutan-1-ol]: the IC50 was greater than 10 µM.

As to `OC1(Cn2nc(NCc3nc4ccccc4[nH]3)c3ncc(C4CC4)nc32)CCCC1` [Example 73, 1-[(3-{[(1H-benzimidazol-2-yl)methyl]amino}-6-cyclopropyl-1H-pyrazolo[3,4-b]pyrazin-1-yl)methyl]cyclopentan-1-ol], the IC50 was greater than 10 µM.
